US8269051B2, “Wickerol and method for producing the same” (The Kitasato Institute, priority 2008, dated 2012)
≈ marks a conversion by molar mass, not a printed value.

What was measured:
[1] = tested on: influenza virus A/PR/8/34; conditions: ratio of MDCK cytotoxicity IC50 to antiviral IC50
[2] = tested on: influenza virus A/PR/8/34; assay: microbe, parasite or virus in culture; conditions: unidentified influenza virus, PR/8, MDCK, 72 h, read-out: IC50, inhibition of replication of influenza virus A/PR/8/34 through the infection of the MDCK cells
[3] = tested on: MDCK cells; assay: Proliferation of MDCK cells alone (cytotoxicity); format: cell-based, canine; conditions: Canis lupus familiaris; MDCK cells without virus; read-out: IC50, inhibition of proliferation of the MDCK cells alone
[4] = tested on: the microorganisms shown in the Table 3; assay: Antimicrobial activity, overall statement; format: cell-based; conditions: against the microorganisms shown in the Table 3
Method: Antimicrobial activity of the wickerol of the present invention was as follows. Each circular filter paper (Advantec, diameter: 6 mm) was soaked with 10 μl of methanol solution of the wickerol (1 mg/ml), and then allowed to air-dry for a predetermined time to remove a solvent. After the solvent was removed, the circular filter paper was placed on each of the following test microorganism-containing agar plates, and cultured for 24 hours at 35° C. Thereafter, a diameter of a growth inhibitory circle formed around each of the circular filter papers was measured, and the results were shown in Table 3.

CC1CCC2CC3(C)CCC4C3C1(CCC4(C)O)C2(C)C (stereo not shown) [wickerol]
inhibitory activity against the influenza virus replication relative to cytotoxicity [1]: approximately 100 times
IC50 [2]: 0.07 µg/mL (≈ 0.241 µM)
IC50 [3]: 7 µg/mL (≈ 24.1 µM)
antimicrobial activity [4]: almost no antimicrobial activity
